The text below walks through data of ChEMBL document CHEMBL1146157, “Synthesis and SAR of 2-(4-fluorophenyl)-3-pyrimidin-4-ylimidazo[1,2-a]pyridine derivatives as anticoccidial agents” (Bioorg Med Chem Lett, 2006).

In assay [1] the target is cGMP-dependent protein kinase (Eimeria tenella, UniProt Q8MMZ8). Briefly: Inhibition of Eimeria tenella PKG.
Assay [2] has as its system Eimeria acervulina. Briefly: Antiparasitic activity against Eimeria acervulina in chicken at 25 ppm in feed assessed as percent reduction in oocyst. More on the design: scale not given: the % may be the effect or the level left. Type of assay: functional.
Assay [3] concerns Eimeria tenella. The experiment in a line: Antiparasitic activity against Eimeria tenella in chicken at 25 ppm in feed assessed as percent reduction in oocyst. More on the design: scale not given: the % may be the effect or the level left. It is filed as functional.
For assay [4], the system named is Eimeria tenella. The experiment in a line: Antiparasitic activity against Eimeria tenella in chicken at 50 ppm in feed assessed as percent reduction in oocyst. It is filed as functional. More on the design: scale not given: the % may be the effect or the level left.
Assay [5] deals with Eimeria acervulina. Briefly: Antiparasitic activity against Eimeria acervulina in chicken at 50 ppm in feed assessed as percent reduction in oocyst. It is filed as functional. More on the design: scale not given: the % may be the effect or the level left.

By IC50 is commonly meant the concentration that gives 50% inhibition.

Sequence of cGMP-dependent protein kinase (Q8MMZ8 whole entry): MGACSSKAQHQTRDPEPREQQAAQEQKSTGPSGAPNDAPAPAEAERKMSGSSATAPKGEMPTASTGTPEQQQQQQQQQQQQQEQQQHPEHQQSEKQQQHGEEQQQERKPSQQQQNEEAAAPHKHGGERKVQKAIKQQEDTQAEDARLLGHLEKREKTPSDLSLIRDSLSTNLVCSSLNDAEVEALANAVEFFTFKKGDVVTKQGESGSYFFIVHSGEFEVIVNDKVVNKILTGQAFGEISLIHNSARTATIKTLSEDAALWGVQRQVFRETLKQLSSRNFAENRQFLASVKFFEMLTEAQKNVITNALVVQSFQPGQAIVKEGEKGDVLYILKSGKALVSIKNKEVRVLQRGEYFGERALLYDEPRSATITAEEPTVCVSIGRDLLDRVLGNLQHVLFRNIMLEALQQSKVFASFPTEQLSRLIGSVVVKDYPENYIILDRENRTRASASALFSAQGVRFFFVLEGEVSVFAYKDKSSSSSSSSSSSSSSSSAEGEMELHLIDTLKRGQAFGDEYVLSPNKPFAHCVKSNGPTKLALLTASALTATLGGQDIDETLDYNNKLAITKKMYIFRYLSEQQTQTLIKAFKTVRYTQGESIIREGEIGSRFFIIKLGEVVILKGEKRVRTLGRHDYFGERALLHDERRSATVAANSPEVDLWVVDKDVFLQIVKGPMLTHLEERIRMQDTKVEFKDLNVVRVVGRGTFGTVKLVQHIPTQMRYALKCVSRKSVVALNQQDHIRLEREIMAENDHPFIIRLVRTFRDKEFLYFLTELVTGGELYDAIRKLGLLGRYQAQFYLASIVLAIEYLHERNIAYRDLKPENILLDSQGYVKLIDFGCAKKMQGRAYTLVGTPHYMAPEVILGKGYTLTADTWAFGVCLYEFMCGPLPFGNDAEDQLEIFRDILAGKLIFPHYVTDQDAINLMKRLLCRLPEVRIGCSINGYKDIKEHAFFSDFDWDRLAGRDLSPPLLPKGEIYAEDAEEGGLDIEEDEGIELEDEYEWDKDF

The compound `C[C@@H](Nc1nccc(-c2c(-c3ccc(F)cc3)nc3cc(CN(C)C)ccn23)n1)c1ccccc1` showed an IC50 in assay [1] of 0.32 nM. Also, the Activity entry with Eimeria acervulina [2] and with Eimeria tenella [3] was “>=80%” in each case.

Consider `CN(C)Cc1ccn2c(-c3ccnc(N(C)Cc4ccccc4)n3)c(-c3ccc(F)cc3)nc2c1`, for which the half-maximal inhibitory concentration (IC50) in assay [1] worked out at 3 nM. For the same compound, the Activity in the assay with Eimeria acervulina [2] was 50%; in the assay on Eimeria tenella [3] it was less than 50%.

Take `C[C@H](Nc1nccc(-c2c(-c3ccc(F)cc3)nc3cc(CN(C)C)ccn23)n1)c1ccccc1`: in assay [1], the IC50 came to 0.47 nM. Also, the values for the Activity in the assay on Eimeria acervulina [2] and in the assay on Eimeria tenella [3] were less than 50% and “>=80%”, respectively.

Consider `CN(C)Cc1ccn2c(-c3ccnc(OCc4ccccc4)n3)c(-c3ccc(F)cc3)nc2c1`, for which the Activity in the assay with Eimeria tenella [4] and with Eimeria acervulina [5] was less than 50% each time. In addition, the IC50 in assay [1] was found to be 0.27 nM.
